# Data taken from patent publication US20240270821A1, “GIP/GLP1/GCG TRI-RECEPTOR AGONISTS AND USES THEREOF” (priority 2023, published 2024).
# Starred links: 1 amine or outer side, 2 acyl side, 3 side chain; linkers in the order of their positions; H or OH if unused. Non-standard residues stand in square brackets, D forms with d. Residues, ends and D or L forms follow the SMILES beside them. Groups on a side chain read outwards from the residue. *: point of attachment. C18 diacid = O=C(O)CCCCCCCCCCCCCCCCC(=O)*; αMePhe(2-F) = C[C@](N)(Cc1ccccc1F)C(=O)O; γGlu = O=C(O)[C@H](CCC(=O)[*:2])N[*:1]; αMeF = C[C@](N)(Cc1ccccc1)C(=O)O; 4Pal = N[C@@H](Cc1ccncc1)C(=O)O; αMeL = CC(C)C[C@](C)(N)C(=O)O; αMeS = C[C@](N)(CO)C(=O)O; Orn = NCCC[C@H](N)C(=O)O; AEEA = NCCOCCOCC(=O)O; Aib = CC(C)(N)C(=O)O
# What was measured:
# Format in all cases: cell-based
# [1] = molecular target: T1, hGLP-1R (Homo sapiens, UniProt P43220); experiment: Functional cAMP activity in the presence of 1% HSA; conditions: read-out: cAMP Rel EC50, hGLP-1R
# [2] = molecular target: human GcgR (Homo sapiens, UniProt P47871); experiment: Functional cAMP activity in the presence of 1% HSA; conditions: read-out: cAMP Rel EC50, hGcgR
# [3] = molecular target: T1, hGLP-1R; experiment: Functional cAMP activation in the presence of 0.1% casein (no HSA); conditions: read-out: Relative cAMP EC50, hGLP-1R;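 on Relative cAMP EC50, hGIPR: intracellular cAMP rise after 30 min at 37 °C read by HTRF against a standard curve, scaled between buffer alone (0%) and top control ligand concentration (100%), four-parameter fit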;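 on Relative cAMP EC50, hGLP-1R: intracellular cAMP rise after 30 min at 37 °C read by HTRF, normalized between buffer only (0%) and maximal control ligand (100%), four-parameter variable-slope fit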;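 on Relative cAMP EC50, hGcgR: intracellular cAMP rise after 30 min at 37 °C, read by HTRF against a cAMP standard curve, scaled from buffer only (0%) to maximal control ligand response (100%)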
# [4] = molecular target: hGcgR (Homo sapiens, UniProt P47871); experiment: as above; conditions: read-out: Relative cAMP EC50, hGcgR;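 further: intracellular cAMP rise after 30 min at 37 °C, read by HTRF against a cAMP standard curve, scaled from buffer only (0%) to maximal control ligand response (100%)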
# [5] = molecular target: T2, hGIPR (Homo sapiens, UniProt P48546); experiment: Functional cAMP activity in the presence of 1% HSA; conditions: read-out: cAMP Rel EC50, hGIPR
# T2 sequence (P48546 22-466): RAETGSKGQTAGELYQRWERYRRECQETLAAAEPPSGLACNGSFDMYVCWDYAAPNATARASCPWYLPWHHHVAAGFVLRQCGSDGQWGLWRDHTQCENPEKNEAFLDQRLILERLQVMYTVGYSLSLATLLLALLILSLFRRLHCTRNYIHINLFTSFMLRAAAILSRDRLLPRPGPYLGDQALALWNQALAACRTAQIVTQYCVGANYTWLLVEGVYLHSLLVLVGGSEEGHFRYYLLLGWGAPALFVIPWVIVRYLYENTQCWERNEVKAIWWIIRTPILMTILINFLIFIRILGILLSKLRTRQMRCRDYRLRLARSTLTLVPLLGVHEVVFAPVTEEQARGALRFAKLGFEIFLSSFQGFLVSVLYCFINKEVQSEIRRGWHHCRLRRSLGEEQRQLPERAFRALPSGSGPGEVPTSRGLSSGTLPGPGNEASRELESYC
# [6] = molecular target: T2, hGIPR; experiment: Functional cAMP activation in the presence of 0.1% casein (no HSA); conditions: read-out: Relative cAMP EC50, hGIPR;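 on Relative cAMP EC50, hGIPR: intracellular cAMP rise after 30 min at 37 °C read by HTRF against a standard curve, scaled between buffer alone (0%) and top control ligand concentration (100%), four-parameter fit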;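 on Relative cAMP EC50, hGLP-1R: intracellular cAMP rise after 30 min at 37 °C read by HTRF, normalized between buffer only (0%) and maximal control ligand (100%), four-parameter variable-slope fit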;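 on Relative cAMP EC50, hGcgR: intracellular cAMP rise after 30 min at 37 °C, read by HTRF against a cAMP standard curve, scaled from buffer only (0%) to maximal control ligand response (100%)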
# T1 sequence (P43220 24-463): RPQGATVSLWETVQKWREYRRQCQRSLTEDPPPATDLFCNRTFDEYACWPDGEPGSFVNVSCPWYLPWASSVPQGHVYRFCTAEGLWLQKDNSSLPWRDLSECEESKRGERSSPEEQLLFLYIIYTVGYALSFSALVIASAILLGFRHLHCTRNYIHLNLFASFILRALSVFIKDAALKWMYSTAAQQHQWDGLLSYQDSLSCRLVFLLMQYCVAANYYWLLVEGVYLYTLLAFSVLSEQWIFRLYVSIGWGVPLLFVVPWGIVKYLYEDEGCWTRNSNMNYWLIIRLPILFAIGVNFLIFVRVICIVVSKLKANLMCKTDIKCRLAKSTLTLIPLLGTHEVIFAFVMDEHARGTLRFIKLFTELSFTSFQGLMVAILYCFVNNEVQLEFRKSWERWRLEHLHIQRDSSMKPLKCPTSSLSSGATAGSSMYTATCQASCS
# Chain of hGcgR (P47871 26-477): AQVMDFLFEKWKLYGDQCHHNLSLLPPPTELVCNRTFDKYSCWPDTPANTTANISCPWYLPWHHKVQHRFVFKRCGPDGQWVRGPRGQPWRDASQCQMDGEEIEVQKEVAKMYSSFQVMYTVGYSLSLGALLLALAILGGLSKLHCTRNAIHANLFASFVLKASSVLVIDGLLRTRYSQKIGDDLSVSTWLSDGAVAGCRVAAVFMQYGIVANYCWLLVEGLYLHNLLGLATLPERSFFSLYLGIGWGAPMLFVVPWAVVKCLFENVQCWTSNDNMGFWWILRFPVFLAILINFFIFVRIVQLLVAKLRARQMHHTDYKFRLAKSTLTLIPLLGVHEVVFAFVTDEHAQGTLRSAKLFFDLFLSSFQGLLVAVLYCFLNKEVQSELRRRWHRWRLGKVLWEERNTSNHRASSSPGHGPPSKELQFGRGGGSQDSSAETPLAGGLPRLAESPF
# Chain of human GcgR (P47871 26-477): as above
SMILES,EC50 [1] [nM],EC50 [2] [nM],EC50 [3] [nM],EC50 [4] [nM],EC50 [5] [nM],EC50 [6] [nM]
CC[C@H](C)[C@H](NC(=O)[C@H](Cc1ccccc1)NC(=O)[C@H](C)NC(=O)C(C)(C)NC(=O)[C@H](CCC(N)=O)NC(=O)[C@H](C)NC(=O)[C@H](CCCCNC(=O)COCCOCCNC(=O)COCCOCCNC(=O)CC[C@H](NC(=O)CCCCCCCCCCCCCCCCC(=O)O)C(=O)O)NC(=O)[C@H](CCCCN)NC(=O)[C@H](CC(=O)O)NC(=O)[C@H](CC(C)C)NC(=O)[C@H](CC(C)C)NC(=O)[C@@H](NC(=O)[C@H](CO)NC(=O)[C@H](Cc1ccncc1)NC(=O)[C@H](CC(=O)O)NC(=O)[C@H](CO)NC(=O)[C@@H](NC(=O)[C@](C)(Cc1ccccc1)NC(=O)[C@@H](NC(=O)CNC(=O)[C@H](CCC(N)=O)NC(=O)C(C)(C)NC(=O)[C@@H](N)Cc1ccc(O)cc1)[C@@H](C)O)[C@@H](C)O)[C@@H](C)CC)C(=O)N[C@@H](CCC(=O)O)C(=O)N[C@@H](Cc1ccc(O)cc1)C(=O)N[C@@H](CC(C)C)C(=O)N[C@@H](CC(C)C)C(=O)N[C@@H](CCC(=O)O)C(=O)NCC(=O)NCC(=O)N1CCC[C@H]1C(=O)N[C@@H](CO)C(=O)N[C@@H](CO)C(=O)NCC(=O)N[C@@H](C)C(=O)N1CCC[C@H]1C(=O)N1CCC[C@H]1C(=O)N1CCC[C@H]1C(=O)N[C@@H](CO)C(N)=O [Example 418] (H-Y[Aib]QGT[αMeF]TSD[4Pal]SILLDKK([AEEA-AEEA-γGlu-C18 diacid])AQ[Aib]AFIEYLLEGGPSSGAPPPS-NH2; N-terminus assumed),36.6,627,0.264,4.7,6.02,0.0153
CC[C@H](C)[C@H](NC(=O)[C@H](CO)NC(=O)[C@H](Cc1ccc(O)cc1)NC(=O)[C@H](CC(=O)O)NC(=O)[C@H](CO)NC(=O)[C@@H](NC(=O)[C@](C)(Cc1ccccc1)NC(=O)[C@@H](NC(=O)CNC(=O)[C@H](CCC(N)=O)NC(=O)C(C)(C)NC(=O)[C@@H](N)Cc1ccc(O)cc1)[C@@H](C)O)[C@@H](C)O)C(=O)N[C@@H](CC(C)C)C(=O)N[C@@H](CC(C)C)C(=O)N[C@@H](CC(=O)O)C(=O)N[C@@H](CCCCN)C(=O)N[C@@H](CCCCNC(=O)COCCOCCNC(=O)COCCOCCNC(=O)CC[C@H](NC(=O)CCCCCCCCCCCCCCCCC(=O)O)C(=O)O)C(=O)N[C@@H](C)C(=O)N[C@@H](CCC(N)=O)C(=O)NC(C)(C)C(=O)N[C@@H](C)C(=O)N[C@@H](Cc1ccccc1)C(=O)N[C@H](C(=O)N[C@H](CCC(=O)O)C(=O)N[C@@H](Cc1ccc(O)cc1)C(=O)N[C@@H](CC(C)C)C(=O)N[C@@H](CC(C)C)C(=O)N[C@@H](CCC(=O)O)C(=O)NCC(=O)NCC(=O)N1CCC[C@H]1C(=O)N[C@@H](CO)C(=O)N[C@@H](CO)C(=O)NCC(=O)N[C@@H](C)C(=O)N1CCC[C@H]1C(=O)N1CCC[C@H]1C(=O)N1CCC[C@H]1C(=O)N[C@@H](CO)C(N)=O)[C@@H](C)CC [Example 419],65.5,1650,0.615,8.52,9.47,0.0235
CC[C@H](C)[C@H](NC(=O)[C@H](Cc1ccccc1)NC(=O)[C@H](C)NC(=O)C(C)(C)NC(=O)[C@H](CCC(N)=O)NC(=O)[C@H](C)NC(=O)[C@H](CCCCNC(=O)COCCOCCNC(=O)CC[C@H](NC(=O)CCCCCCCCCCCCCCCCC(=O)O)C(=O)O)NC(=O)[C@H](CCCN)NC(=O)[C@H](CC(=O)O)NC(=O)[C@H](CC(C)C)NC(=O)[C@](C)(CC(C)C)NC(=O)[C@@H](NC(=O)[C@](C)(CO)NC(=O)[C@H](Cc1ccc(O)cc1)NC(=O)[C@H](CC(=O)O)NC(=O)[C@H](CO)NC(=O)[C@@H](NC(=O)[C@](C)(Cc1ccccc1)NC(=O)[C@@H](NC(=O)CNC(=O)[C@H](CCC(N)=O)NC(=O)C(C)(C)NC(=O)[C@@H](N)Cc1ccc(O)cc1)[C@@H](C)O)[C@@H](C)O)[C@@H](C)CC)C(=O)N[C@H](CCC(=O)O)C(=O)N[C@@H](Cc1ccc(O)cc1)C(=O)N[C@@H](CC(C)C)C(=O)N[C@@H](CC(C)C)C(=O)N[C@@H](CCC(=O)O)C(=O)NCC(=O)NCC(=O)N1CCC[C@H]1C(=O)N[C@@H](CO)C(=O)N[C@@H](CO)C(=O)NCC(=O)N[C@@H](CCC(=O)O)C(=O)N1CCC[C@H]1C(=O)N1CCC[C@H]1C(=O)N1CCC[C@H]1C(=O)N[C@@H](CCC(=O)O)C(N)=O [Example 420] (H-Y[Aib]QGT[αMeF]TSDY[αMeS]I[αMeL]LD[Orn]K([AEEA-γGlu-C18 diacid])AQ[Aib]AFI[dE]YLLEGGPSSGEPPPE-NH2),31.3,433,0.205,2.49,2.61,0.0131
CC[C@H](C)[C@H](NC(=O)[C@H](Cc1ccccc1)NC(=O)[C@H](C)NC(=O)C(C)(C)NC(=O)[C@H](CCC(N)=O)NC(=O)[C@H](C)NC(=O)[C@H](CCCCNC(=O)COCCOCCNC(=O)CC[C@H](NC(=O)CCCCCCCCCCCCCCCCC(=O)O)C(=O)O)NC(=O)[C@H](CCCCN)NC(=O)[C@H](CC(=O)O)NC(=O)[C@H](CC(C)C)NC(=O)[C@](C)(CC(C)C)NC(=O)[C@@H](NC(=O)[C@H](CO)NC(=O)[C@H](Cc1ccc(O)cc1)NC(=O)[C@H](CC(=O)O)NC(=O)[C@H](CO)NC(=O)[C@@H](NC(=O)[C@](C)(Cc1ccccc1F)NC(=O)[C@@H](NC(=O)CNC(=O)[C@H](CCC(N)=O)NC(=O)C(C)(C)NC(=O)[C@@H](N)Cc1ccc(O)cc1)[C@@H](C)O)[C@@H](C)O)[C@@H](C)CC)C(=O)N[C@@H](CCC(=O)O)C(=O)N[C@@H](Cc1ccc(O)cc1)C(=O)N[C@@H](CC(C)C)C(=O)N[C@@H](CCC(=O)O)C(=O)N[C@@H](CCC(=O)O)C(=O)NCC(=O)NCC(=O)N1CCC[C@H]1C(=O)N[C@@H](CO)C(=O)N[C@@H](CO)C(=O)NCC(=O)N[C@@H](C)C(=O)N1CCC[C@H]1C(=O)N1CCC[C@H]1C(=O)N1CCC[C@H]1C(=O)N[C@@H](CO)C(N)=O [Example 421] (H-Y[Aib]QGT[αMePhe(2-F)]TSDYSI[αMeL]LDKK([AEEA-γGlu-C18 diacid])AQ[Aib]AFIEYLEEGGPSSGAPPPS-NH2),31.9,468,0.21,3.25,2.98,0.0132
CC[C@H](C)[C@H](NC(=O)[C@H](Cc1ccccc1)NC(=O)[C@H](C)NC(=O)C(C)(C)NC(=O)[C@H](CCC(N)=O)NC(=O)[C@H](C)NC(=O)[C@H](CCCCNC(=O)COCCOCCNC(=O)CC[C@H](NC(=O)CCCCCCCCCCCCCCCCC(=O)O)C(=O)O)NC(=O)[C@H](CCCCN)NC(=O)[C@H](CC(=O)O)NC(=O)[C@H](CC(C)C)NC(=O)[C@](C)(CC(C)C)NC(=O)[C@@H](NC(=O)[C@H](CO)NC(=O)[C@H](Cc1ccncc1)NC(=O)[C@H](CC(=O)O)NC(=O)[C@H](CO)NC(=O)[C@@H](NC(=O)[C@](C)(Cc1ccccc1F)NC(=O)[C@@H](NC(=O)CNC(=O)[C@H](CCC(N)=O)NC(=O)C(C)(C)NC(=O)[C@@H](N)Cc1ccc(O)cc1)[C@@H](C)O)[C@@H](C)O)[C@@H](C)CC)C(=O)N[C@@H](CCC(=O)O)C(=O)N[C@@H](Cc1ccc(O)cc1)C(=O)N[C@@H](CC(C)C)C(=O)N[C@@H](CCC(=O)O)C(=O)N[C@@H](CCC(=O)O)C(=O)NCC(=O)NCC(=O)N1CCC[C@H]1C(=O)N[C@@H](CO)C(=O)N[C@@H](CO)C(=O)NCC(=O)N[C@@H](C)C(=O)N1CCC[C@H]1C(=O)N1CCC[C@H]1C(=O)N1CCC[C@H]1C(=O)N[C@@H](CO)C(N)=O [Example 422] (H-Y[Aib]QGT[αMePhe(2-F)]TSD[4Pal]SI[αMeL]LDKK([AEEA-γGlu-C18 diacid])AQ[Aib]AFIEYLEEGGPSSGAPPPS-NH2),27.1,493,0.252,14.5,4.4,0.0216
CC[C@H](C)[C@H](NC(=O)[C@H](Cc1ccccc1)NC(=O)[C@H](C)NC(=O)C(C)(C)NC(=O)[C@H](CCC(N)=O)NC(=O)[C@H](C)NC(=O)[C@H](CCCCNC(=O)COCCOCCNC(=O)CC[C@H](NC(=O)CCCCCCCCCCCCCCCCC(=O)O)C(=O)O)NC(=O)[C@H](CCCCN)NC(=O)[C@H](CC(=O)O)NC(=O)[C@H](CC(C)C)NC(=O)[C@](C)(CC(C)C)NC(=O)[C@@H](NC(=O)[C@H](CO)NC(=O)[C@H](Cc1ccc(O)cc1)NC(=O)[C@H](CC(=O)O)NC(=O)[C@H](CO)NC(=O)[C@@H](NC(=O)[C@](C)(Cc1ccccc1F)NC(=O)[C@@H](NC(=O)CNC(=O)[C@H](CCC(N)=O)NC(=O)C(C)(C)NC(=O)[C@@H](N)Cc1ccc(O)cc1)[C@@H](C)O)[C@@H](C)O)[C@@H](C)CC)C(=O)N[C@@H](CCC(=O)O)C(=O)N[C@@H](Cc1ccc(O)cc1)C(=O)N[C@@H](CC(C)C)C(=O)N[C@@H](CCC(=O)O)C(=O)N[C@@H](CCC(=O)O)C(=O)NCC(=O)NCC(=O)N1CCC[C@H]1C(=O)N[C@@H](CO)C(=O)N[C@@H](CO)C(=O)NCC(=O)N[C@@H](C)C(=O)N1CCC[C@H]1C(=O)N[C@@H](CCC(=O)O)C(=O)N1CCC[C@H]1C(=O)N[C@@H](CO)C(N)=O [Example 423] (H-Y[Aib]QGT[αMePhe(2-F)]TSDYSI[αMeL]LDKK([AEEA-γGlu-C18 diacid])AQ[Aib]AFIEYLEEGGPSSGAPEPS-NH2),28.7,319,0.194,1.92,3.07,0.0114
